Assay: xn = mol fraction of the nth substance listed, in the solute-free solvent

CS(=O)(=O)c1ccc(C(O)C(CF)NC(=O)C(Cl)Cl)cc1 (stereo unspecified) + CC(C)O + O
solubility (g/100 g solution)
Settings | 278.15 K | 283.15 K | 288.15 K | 293.15 K | 298.15 K | 303.15 K | 308.15 K | 313.15 K | 318.15 K
x2 = 0.03225 | 0.082 | 0.109 | 0.146 | 0.189 | 0.246 | 0.32 | 0.403 | 0.515 | 0.641
x2 = 0.06974 | 0.117 | 0.159 | 0.216 | 0.278 | 0.362 | 0.488 | 0.613 | 0.798 | 1
x2 = 0.1139 | 0.16 | 0.215 | 0.286 | 0.379 | 0.504 | 0.64 | 0.828 | 1.06 | 1.35
x2 = 0.1666 | 0.199 | 0.266 | 0.353 | 0.472 | 0.608 | 0.787 | 1.01 | 1.29 | 1.64
x2 = 0.2307 | 0.237 | 0.317 | 0.422 | 0.56 | 0.717 | 0.931 | 1.19 | 1.5 | 1.88
x2 = 0.3103 | 0.276 | 0.367 | 0.481 | 0.629 | 0.81 | 1.05 | 1.34 | 1.67 | 2.1
x2 = 0.4117 | 0.296 | 0.398 | 0.516 | 0.669 | 0.873 | 1.14 | 1.42 | 1.78 | 2.24
x2 = 0.5454 | 0.308 | 0.411 | 0.536 | 0.702 | 0.9 | 1.16 | 1.47 | 1.89 | 2.32
x2 = 0.7297 | 0.309 | 0.407 | 0.537 | 0.697 | 0.911 | 1.14 | 1.47 | 1.84 | 2.29

Source: the CheMixHub drug solubility set
